The values that follow come from publication PMC7294809, “Discovery of an Allosteric Binding Site in Kinetoplastid Methionyl-tRNA Synthetase” (ACS Infectious Diseases, 2020).

Read-outs that look alike come from different tables or passages of the source.

Data set [1] deals with T1, TcMetRS (Trypanosoma cruzi, UniProt Q4D6H2). Nature of the data set: TcMetRS kinetic parameter determinations (Km app). In kind it is biochemical. The protocol: (§1) The activity of the TcMetRS enzyme was determined by monitoring levels of pyrophosphate released during the first step of the enzymatic reaction. The pyrophosphate formed was converted to two inorganic phosphate molecules using a pyrophosphatase enzyme, and levels of the resulting phosphate molecules were measured using the BIOMOL Green reagent (Enzo Life Sciences).
(§2) TcMetRS assays were carried out using 384-well, clear, flat-bottomed plates (Greiner) at room temperature (∼23 °C) in 50 μL reaction volumes of assay buffer (30 mM Tris, pH 8.0, 140 mM NaCl, 30 mM KCl, 40 mM MgCl2, 0.01% (v/v) Brij-35, 1 mM DTT) plus 1 U/mL pyrophosphatase and varying concentrations of enzyme and substrates. Enzyme linearity was assessed in a 90 min end-point assay with varying TcMetRS concentrations (0–320 nM), 50 μM L-methionine, and 100 μM ATP. Reactions were stopped with the addition of 50 μL of BIOMOL Green reagent, with the signal allowed to develop for 30 min before the absorbance of each well was read at 650 nm (A650) using a PheraStar plate reader (BMG).
(§3) Apparent Michaelis constants (Km^app) for the L-methionine and ATP substrates were determined in end-point assays using the above buffer conditions and 80 nM recombinant TcMetRS. […] To determine the ATP Km^app, various ATP concentrations were tested in the presence of a fixed, saturating concentration of L-methionine (3 mM). […]

In data set [2] the target is T2, LdMetRS (Leishmania donovani, UniProt A0A3Q8IBX2). Conditions: read-out: LdMetRS Km app; cited from earlier work.
T2 sequence (A0A3Q8IBX2 entry or part of it): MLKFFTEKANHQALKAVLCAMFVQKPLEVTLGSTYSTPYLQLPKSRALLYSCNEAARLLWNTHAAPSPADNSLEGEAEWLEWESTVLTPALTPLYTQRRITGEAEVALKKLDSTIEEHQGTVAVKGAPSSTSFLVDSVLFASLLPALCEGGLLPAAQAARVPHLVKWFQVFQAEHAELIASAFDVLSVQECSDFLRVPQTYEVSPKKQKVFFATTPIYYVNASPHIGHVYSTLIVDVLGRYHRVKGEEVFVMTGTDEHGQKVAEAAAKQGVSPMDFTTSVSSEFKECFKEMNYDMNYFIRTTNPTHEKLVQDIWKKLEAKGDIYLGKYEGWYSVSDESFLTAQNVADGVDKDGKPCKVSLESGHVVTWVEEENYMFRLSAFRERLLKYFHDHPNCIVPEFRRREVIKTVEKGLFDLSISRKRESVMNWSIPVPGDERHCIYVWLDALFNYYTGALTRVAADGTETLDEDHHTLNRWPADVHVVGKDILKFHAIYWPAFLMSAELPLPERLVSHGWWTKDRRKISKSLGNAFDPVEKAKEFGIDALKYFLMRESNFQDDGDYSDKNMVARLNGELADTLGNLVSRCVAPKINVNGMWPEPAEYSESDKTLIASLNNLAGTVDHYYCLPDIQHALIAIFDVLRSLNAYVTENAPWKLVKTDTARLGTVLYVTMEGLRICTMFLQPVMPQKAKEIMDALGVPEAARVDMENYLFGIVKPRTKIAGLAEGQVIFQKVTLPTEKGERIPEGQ
Data set [3] deals with T1, TcMetRS. Nature of the data set: TcMetRS BIOMOL Green biochemical assay, 10-point dose response. Conditions: 50 μM methionine, 100 μM ATP, 80 nM TcMetRS.
In data set [4] the target is T2, LdMetRS. The arrangement: method as in PMID 28967262. Conditions: cited from earlier work.
The test system of data set [5] is leishmaniasis animal model. The arrangement: method as in PMID 28967262. Conditions: cited from earlier work.
Substrate in data set [6]: CSCC[C@H](N)C(=O)O
Nature of the data set: TcMetRS kinetic parameter determinations (Km app). In kind it is biochemical, Trypanosoma cruzi. Conditions: other: saturating 350 μM ATP; N = 3; pH 8.0; 23.0 °C. On the procedure: as §1, §2, §3

As a reminder, the Km is the substrate concentration at which the rate is half of its maximum. For the molecule `Nc1ncnc2c1ncn2[C@@H]1O[C@H](COP(=O)(O)OP(=O)(O)OP(=O)(O)O)[C@@H](O)[C@H]1O` [ATP], the substrate inhibition constant on TcMetRS [1] (ATP, 3 mM methionine) came to 2080 µM. Moreover, the Michaelis-Menten constant (Km) on TcMetRS [1] (saturating 3 mM methionine, N = 3, read-out: TcMetRS apparent Michaelis constant (Km app) for ATP) was 63 µM; at LdMetRS [2], 37 µM.

For `O=c1nc(NCCCNCc2cc3c(Cl)cc(Cl)cc3[nH]2)[nH]c2ccccc12` [DDD806905, reference compound], the IC50 on TcMetRS [3] (read-out: TcMetRS pIC50 (converted)) is 39.8 nM; on TcMetRS [3] (tight binding limit likely reached, read-out: TcMetRS IC50), 38 nM. Further, the “LdMetRS pIC50” value at LdMetRS [4] is on record as 7.0. Also, the in vivo efficacy result in data set [5] is reported as “failed to show in vivo efficacy”.

B1: TcMetRS (Trypanosoma cruzi strain CL Brener) (protein)
chain: MSLKLFSEKANTQALKALLCCHHVKRPVELTLSGAYTSPVLHHPALKQPIFSANEMVRLILHDKWRDDSAGGSGGKKTGCYDGHWASVSLEEEAWLEWEATTFTCAVHPLYTQRRVTPEAAGAFEYLDNKIHENDCRGPCLAPVGEKGTSTKSPSFLVDCIIWCAVLPALCEGGLLGEKEREKLPHLLKWFESFQSAREAHIAGAVESLAVQEFADFLRAPRVYKLSPKISKVFFITTPIYYVNAAPHIGHVYSTLIVDVIGRYHTMKGERVFAMSGTDEHGQKVAEAARQKGMNPYDFTCQVSREFIDCFEQMGYHMDYFIRTTNESHKKVVHELWSKLEAKGDIYLGRYEGWYSVSDESFLTAQNVTDGVDKDGKPCKVSLESGHVVTWLAEDNYMFRLSAFRERLLEWYNNNPGCIVPEFRRREVIRTVEKGLNDLSVSRTREAVQDWAIPVPGNPNHCIYVWLDALSNYYTASRLRLGKSGEELELVEDHRVLERFPADIHVIGKDILKFHAIYWPAFLISAGLPLPKTIVAHGWWTKDRKKISKSLGNVFDPVEKAREFGFDALKYFLLRETGFSDDGDYSDRNMISRLNGELADTLGNLVMRCTSAKINVHRVWPTPDAYNAKDEALIQLIKDLPGVVDHFFLIPDVQKALAAVFDLLRAINSYVTENAPWRLVKTDPDRLRTVLYITMEGTRLATLMLSPVLSQKAPVIFDMLGVPEANRVGVENFGFGVVPSGTSIGDAVEGKVLFPKISLDKAQSA
On to B1, for which, in data set [6], the Km worked out at 212 µM.
